The results in this text go back to patent publication US8178668B2, “2-aminopyridine kinase inhibitors” (OSI Pharmaceuticals, LLC, priority 2008, dated 2012).

Assay [1] deals with RON (human) (Homo sapiens, UniProt Q04912). Nature of the assay: RON kinase AlphaScreen assay (Km of ATP). In kind it is biochemical. The following applies: ATP at Km; at least duplicate experiments. An outline of the steps: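 AlphaScreen with PT66 donor/acceptor beads, read after 1 h, detected phosphorylation of biotinylated poly(Glu,Tyr) by human RON. Enzyme-started reactions ran 30 min at room temperature with ATP at Km. Buffer was HEPES pH 7.4 with MgCl2, glycerol, vanadate and 1% DMSO.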

Assay [2] deals with MET (human) (Homo sapiens, UniProt P08581). Nature of the assay: MET kinase AlphaScreen assay (Km of ATP). Format: biochemical. The following applies: ATP at Km; at least duplicate experiments. Summed up:
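AlphaScreen detection with PT66 beads (1 h) follows a 60 min room-temperature MET reaction. Substrate is 200 ng/μL biotinylated poly(Glu,Tyr), with ATP set at an enzyme-optimized concentration. Buffer is HEPES pH 7.4 with MgCl2, MnCl2 and 0.334 mM vanadate, compounds at 1% DMSO.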
Background: Bead proximity is the source of the signal in Alpha formats.

Usually IC50 stands for the concentration that inhibits the measured activity by half. A low value points to greater potency in that assay.

Chain of MET (human) (P08581 25-1390): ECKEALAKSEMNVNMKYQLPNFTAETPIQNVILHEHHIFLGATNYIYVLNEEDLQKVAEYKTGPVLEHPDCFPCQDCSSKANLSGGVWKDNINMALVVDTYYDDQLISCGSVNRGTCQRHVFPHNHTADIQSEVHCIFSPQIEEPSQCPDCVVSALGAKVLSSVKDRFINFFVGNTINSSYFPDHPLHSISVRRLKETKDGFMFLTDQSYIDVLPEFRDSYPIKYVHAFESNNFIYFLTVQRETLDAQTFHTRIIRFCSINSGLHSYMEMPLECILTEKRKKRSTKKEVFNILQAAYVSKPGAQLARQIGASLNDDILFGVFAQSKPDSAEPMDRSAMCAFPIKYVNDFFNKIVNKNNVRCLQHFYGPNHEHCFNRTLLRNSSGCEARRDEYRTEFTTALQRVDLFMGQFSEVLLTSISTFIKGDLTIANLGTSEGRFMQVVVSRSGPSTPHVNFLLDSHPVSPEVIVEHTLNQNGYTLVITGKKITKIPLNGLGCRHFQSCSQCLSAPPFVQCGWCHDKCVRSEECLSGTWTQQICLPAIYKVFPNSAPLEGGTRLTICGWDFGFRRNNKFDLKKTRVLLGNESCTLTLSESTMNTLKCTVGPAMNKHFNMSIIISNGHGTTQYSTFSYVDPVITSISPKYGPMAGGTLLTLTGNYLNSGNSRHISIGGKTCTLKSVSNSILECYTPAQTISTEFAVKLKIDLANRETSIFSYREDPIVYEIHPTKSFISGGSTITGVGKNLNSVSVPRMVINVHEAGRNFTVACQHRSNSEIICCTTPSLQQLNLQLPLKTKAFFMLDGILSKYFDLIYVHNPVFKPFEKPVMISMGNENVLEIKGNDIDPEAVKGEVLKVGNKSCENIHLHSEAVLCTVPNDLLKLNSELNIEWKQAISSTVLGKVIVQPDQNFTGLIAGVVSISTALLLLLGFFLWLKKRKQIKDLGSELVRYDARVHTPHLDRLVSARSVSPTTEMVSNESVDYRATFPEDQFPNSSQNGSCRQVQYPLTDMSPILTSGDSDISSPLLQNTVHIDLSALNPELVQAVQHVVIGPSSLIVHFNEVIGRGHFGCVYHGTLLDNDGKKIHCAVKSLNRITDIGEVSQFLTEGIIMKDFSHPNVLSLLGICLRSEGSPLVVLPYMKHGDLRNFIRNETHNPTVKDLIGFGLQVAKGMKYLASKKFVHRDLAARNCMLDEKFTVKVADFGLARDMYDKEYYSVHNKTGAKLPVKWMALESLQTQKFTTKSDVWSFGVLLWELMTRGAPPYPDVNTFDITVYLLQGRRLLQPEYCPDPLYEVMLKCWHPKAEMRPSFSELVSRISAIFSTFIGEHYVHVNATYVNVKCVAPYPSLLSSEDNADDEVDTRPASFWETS
Chain of RON (human) (Q04912 25-1400): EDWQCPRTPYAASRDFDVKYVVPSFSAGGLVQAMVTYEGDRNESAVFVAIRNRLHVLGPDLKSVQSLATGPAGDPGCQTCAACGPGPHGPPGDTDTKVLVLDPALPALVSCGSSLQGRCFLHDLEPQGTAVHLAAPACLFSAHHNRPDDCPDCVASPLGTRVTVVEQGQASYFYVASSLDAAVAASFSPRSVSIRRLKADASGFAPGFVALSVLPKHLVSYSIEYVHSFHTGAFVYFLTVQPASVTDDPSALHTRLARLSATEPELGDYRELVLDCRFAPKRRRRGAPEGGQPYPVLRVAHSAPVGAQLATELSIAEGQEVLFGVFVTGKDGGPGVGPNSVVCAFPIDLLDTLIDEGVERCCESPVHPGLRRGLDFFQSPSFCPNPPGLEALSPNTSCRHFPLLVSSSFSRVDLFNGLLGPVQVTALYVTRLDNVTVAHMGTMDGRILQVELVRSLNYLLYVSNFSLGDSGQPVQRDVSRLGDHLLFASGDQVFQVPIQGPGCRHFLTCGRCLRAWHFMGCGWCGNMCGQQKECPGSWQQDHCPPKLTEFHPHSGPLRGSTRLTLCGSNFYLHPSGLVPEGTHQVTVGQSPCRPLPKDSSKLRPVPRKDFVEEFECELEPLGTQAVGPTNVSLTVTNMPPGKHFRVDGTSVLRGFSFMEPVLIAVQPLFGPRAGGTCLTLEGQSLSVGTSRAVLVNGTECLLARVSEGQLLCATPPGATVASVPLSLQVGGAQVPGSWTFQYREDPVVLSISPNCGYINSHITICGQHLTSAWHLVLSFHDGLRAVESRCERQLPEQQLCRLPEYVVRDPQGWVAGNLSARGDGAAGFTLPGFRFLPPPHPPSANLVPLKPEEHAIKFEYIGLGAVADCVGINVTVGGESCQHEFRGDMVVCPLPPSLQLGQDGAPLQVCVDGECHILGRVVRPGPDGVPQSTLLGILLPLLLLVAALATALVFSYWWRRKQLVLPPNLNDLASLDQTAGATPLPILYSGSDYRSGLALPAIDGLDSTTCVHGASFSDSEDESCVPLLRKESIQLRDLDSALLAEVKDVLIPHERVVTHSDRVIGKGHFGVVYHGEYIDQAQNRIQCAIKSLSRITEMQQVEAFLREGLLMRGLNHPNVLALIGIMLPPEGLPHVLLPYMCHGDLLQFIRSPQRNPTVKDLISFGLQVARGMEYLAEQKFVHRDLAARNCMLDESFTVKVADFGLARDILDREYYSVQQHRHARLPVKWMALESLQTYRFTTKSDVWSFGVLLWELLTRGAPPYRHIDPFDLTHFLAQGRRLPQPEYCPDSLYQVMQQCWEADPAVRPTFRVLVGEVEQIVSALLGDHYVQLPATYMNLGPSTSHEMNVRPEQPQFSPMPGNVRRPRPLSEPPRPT

For the compound `Nc1ncc(-c2cnn(CC(=O)NCCO)c2)cc1-c1nc2ccccc2s1` [Example 136, 2-[4-(6-Amino-5-benzothiazol-2-ylpyridin-3-yl)-pyrazol-1-yl]-N-(2-hydroxyethyl)-acetamide], the IC50 in assay [1] and in assay [2] was 1000 to 20000 nM each time.

Consider `CNC(=O)Cn1cc(-c2cnc(N)c(-c3nc4ccccc4s3)c2)cn1` [Example 137, 2-[4-(6-Amino-5-benzothiazol-2-ylpyridin-3-yl)-pyrazol-1-yl]-N-methylacetamide], for which the IC50 in assay [1] and in assay [2] was above 20000 nM each time.

In the case of `COCCN(CCOC)C(=O)Cn1cc(-c2cnc(N)c(-c3nc4ccccc4s3)c2)cn1` [Example 138, 2-[4-(6-Amino-5-benzothiazol-2-ylpyridin-3-yl)-pyrazol-1-yl]-N,N-bis-(2-methoxyethyl)-acetamide], the IC50 in assay [1] and in assay [2] was 1000 to 20000 nM in each case.

With `Nc1ncc(-c2cnn(CC(=O)N3CCC(O)CC3)c2)cc1-c1nc2ccccc2s1` [Example 139, 2-[4-(6-Amino-5-benzothiazol-2-ylpyridin-3-yl)-pyrazol-1-yl]-1-(4-hydroxypiperidin-1-yl)-ethanone], the IC50 in assay [1] and in assay [2] was 1000 to 20000 nM throughout.

`CN(C)C(=O)Cn1cc(-c2cnc(N)c(-c3nc4ccccc4s3)c2)cn1` [Example 140, 2-[4-(6-Amino-5-benzothiazol-2-ylpyridin-3-yl)-pyrazol-1-yl]-N,N-dimethylacetamide]: the IC50 in assay [1] and in assay [2] was 1000 to 20000 nM in each case.

Take `Nc1ncc(-c2cnn(CC(=O)N3CCCCC3)c2)cc1-c1nc2ccccc2s1` [Example 141, 2-[4-(6-Amino-5-benzothiazol-2-ylpyridin-3-yl)-pyrazol-1-yl]-1-piperidin-1-ylethanone]: the IC50 in assay [1] and in assay [2] was 1000 to 20000 nM in each case.

Consider `CC(C(=O)N1CCOCC1)n1cc(-c2cnc(N)c(-c3nc4ccccc4s3)c2)cn1` (stereo not shown) [Example 142, 2-[4-(6-Amino-5-benzothiazol-2-ylpyridin-3-yl)-pyrazol-1-yl]-1-morpholin-4-ylpropan-1-one], for which the IC50 in assay [1] and in assay [2] was 1000 to 20000 nM each time.

Consider `COCCN(CCOC)C(=O)C(C)n1cc(-c2cnc(N)c(-c3nc4ccccc4s3)c2)cn1` (stereo not shown) [Example 143, 2-[4-(6-Amino-5-benzothiazol-2-ylpyridin-3-yl)-pyrazol-1-yl]-N,N-bis-(2-methoxyethyl)-propionamide], for which the IC50 in assay [1] and in assay [2] was 1000 to 20000 nM throughout.

Regarding `CNC(=O)C(C)n1cc(-c2cnc(N)c(-c3nc4ccccc4s3)c2)cn1` (stereo not shown) [Example 144, 2-[4-(6-Amino-5-benzothiazol-2-ylpyridin-3-yl)-pyrazol-1-yl]-N-methylpropionamide], the IC50 in assay [1] and in assay [2] was 1000 to 20000 nM throughout.

`CC(C(N)=O)n1cc(-c2cnc(N)c(-c3nc4ccccc4s3)c2)cn1` (stereo not shown) [Example 145, 2-[4-(6-Amino-5-benzothiazol-2-ylpyridin-3-yl)-pyrazol-1-yl]-propionamide]: the IC50 in assay [1] was 1000 to 20000 nM; in assay [2], 100 to 1000 nM.

Turning to `COCCNC(=O)C(C)n1cc(-c2cnc(N)c(-c3nc4ccccc4s3)c2)cn1` (stereo not shown) [Example 146, 2-[4-(6-Amino-5-benzothiazol-2-ylpyridin-3-yl)-pyrazol-1-yl]-N-(2-methoxyethyl)-propionamide], the IC50 in assay [1] and in assay [2] was 1000 to 20000 nM each time.

For the compound `CC(C(=O)NCCO)n1cc(-c2cnc(N)c(-c3nc4ccccc4s3)c2)cn1` (stereo not shown) [Example 147, 2-[4-(6-Amino-5-benzothiazol-2-ylpyridin-3-yl)-pyrazol-1-yl]-N-(2-hydroxyethyl)-propionamide], the IC50 in assay [1] and in assay [2] was 1000 to 20000 nM each time.

With `CC(C(=O)N(C)C)n1cc(-c2cnc(N)c(-c3nc4ccccc4s3)c2)cn1` (stereo not shown) [Example 148, 2-[4-(6-Amino-5-benzothiazol-2-ylpyridin-3-yl)-pyrazol-1-yl]-N,N-dimethylpropionamide], the IC50 in assay [1] and in assay [2] was 1000 to 20000 nM each time.

With `CC(C(=O)N1CCC(O)C1)n1cc(-c2cnc(N)c(-c3nc4ccccc4s3)c2)cn1` (stereo not shown) [Example 149, 2-[4-(6-Amino-5-benzothiazol-2-ylpyridin-3-yl)-pyrazol-1-yl]-1-(3-hydroxypyrrolidin-1-yl)-propan-1-one], the IC50 in assay [1] and in assay [2] was 1000 to 20000 nM each time.

With `CC(C(=O)N1CCC(O)CC1)n1cc(-c2cnc(N)c(-c3nc4ccccc4s3)c2)cn1` (stereo not shown) [Example 150, 2-[4-(6-Amino-5-benzothiazol-2-ylpyridin-3-yl)-pyrazol-1-yl]-1-(4-hydroxypiperidin-1-yl)-propan-1-one], the IC50 in assay [1] and in assay [2] was 100 to 1000 nM throughout.

On to `CC(C(=O)N1CCCC1)n1cc(-c2cnc(N)c(-c3nc4ccccc4s3)c2)cn1` (stereo not shown) [Example 151, 2-[4-(6-Amino-5-benzothiazol-2-ylpyridin-3-yl)-pyrazol-1-yl]-1-pyrrolidin-1-ylpropan-1-one], for which the IC50 in assay [1] and in assay [2] was 100 to 1000 nM in each case.

For `CC(C(=O)N1CCCCC1)n1cc(-c2cnc(N)c(-c3nc4ccccc4s3)c2)cn1` (stereo not shown) [Example 152, 2-[4-(6-Amino-5-benzothiazol-2-ylpyridin-3-yl)-pyrazol-1-yl]-1-piperidin-1-ylpropan-1-one], the IC50 in assay [1] and in assay [2] was 1000 to 20000 nM each time.

In the case of `Nc1ncc(-c2cnn(CCC(=O)N3CCCC3)c2)cc1-c1nc2ccccc2s1` [Example 153, 3-[4-(6-Amino-5-benzothiazol-2-ylpyridin-3-yl)-pyrazol-1-yl]-1-pyrrolidin-1-ylpropan-1-one], the IC50 in assay [1] is above 20000 nM; in assay [2], 100 to 1000 nM.

Turning to `Nc1ncc(-c2cnn([C@@H]3CN[C@H](C(=O)O)C3)c2)cc1-c1nc2ccccc2s1` [Example 154, (2S,4S)-4-[4-(6-Amino-5-benzothiazol-2-ylpyridin-3-yl)-pyrazol-1-yl]-pyrrolidine-2-carboxylic acid], the IC50 in assay [1] is 100 to 1000 nM; in assay [2], at most 100 nM.

As for `CN(C)C(=O)[C@@H]1C[C@H](n2cc(-c3cnc(N)c(-c4nc5ccccc5s4)c3)cn2)CN1` [Example 155, (2S,4S)-4-[4-(6-Amino-5-benzothiazol-2-ylpyridin-3-yl)-pyrazol-1-yl]-pyrrolidine-2-carboxylic acid dimethylamide], the IC50 in assay [1] was 100 to 1000 nM; in assay [2], at most 100 nM.

`Nc1ncc(-c2cnn([C@@H]3CN[C@H](C(=O)N4CCCC4)C3)c2)cc1-c1nc2ccccc2s1` [Example 156, {(2S,4S)-4-[4-(6-Amino-5-benzothiazol-2-ylpyridin-3-yl)-pyrazol-1-yl]-pyrrolidin-2-yl}-pyrrolidin-1-ylmethanone]: the IC50 in assay [1] and in assay [2] was at most 100 nM each time.

`Nc1ncc(-c2cnn([C@@H]3CN[C@H](C(=O)N4CCOCC4)C3)c2)cc1-c1nc2ccccc2s1` [Example 157, {(2S,4S)-4-[4-(6-Amino-5-benzothiazol-2-ylpyridin-3-yl)-pyrazol-1-yl]-pyrrolidin-2-yl}-morpholin-4-ylmethanone]: the IC50 in assay [1] and in assay [2] was at most 100 nM throughout.

As to `Nc1ncc(-c2cnn([C@@H]3CN[C@H](C(=O)N4CCCCC4)C3)c2)cc1-c1nc2ccccc2s1` [Example 158, {(2S,4S)-4-[4-(6-Amino-5-benzothiazol-2-ylpyridin-3-yl)-pyrazol-1-yl]-pyrrolidin-2-yl}-piperidin-1-ylmethanone], the IC50 in assay [1] and in assay [2] was at most 100 nM in each case.

`Nc1ncc(-c2cnn([C@@H]3CN[C@H](C(=O)N4CCC(O)C4)C3)c2)cc1-c1nc2ccccc2s1` (stereo partly drawn) [Example 159, {(2S,4S)-4-[4-(6-Amino-5-benzothiazol-2-ylpyridin-3-yl)-pyrazol-1-yl]-pyrrolidin-2-yl}-(3-hydroxypyrrolidin-1-yl)-methanone]: the IC50 in assay [1] and in assay [2] was at most 100 nM each time.

Take `Nc1ncc(-c2cnn([C@@H]3CN[C@H](C(=O)N4CCC4)C3)c2)cc1-c1nc2ccccc2s1` [Example 160, {(2S,4S)-4-[4-(6-Amino-5-benzothiazol-2-ylpyridin-3-yl)-pyrazol-1-yl]-pyrrolidin-2-yl}-azetidin-1-ylmethanone]: the IC50 is 100 to 1000 nM in assay [1] and at most 100 nM in assay [2].

On to `Nc1ncc(-c2cnn(C3CCN(CC(=O)O)CC3)c2)cc1-c1nc2ccccc2s1` [Example 161, {4-[4-(6-Amino-5-benzothiazol-2-ylpyridin-3-yl)-pyrazol-1-yl]-piperidin-1-yl}-acetic acid], for which the IC50 is 100 to 1000 nM in assay [1] and at most 100 nM in assay [2].

Take `NC(=O)CN1CCC(n2cc(-c3cnc(N)c(-c4nc5ccccc5s4)c3)cn2)CC1` [Example 162, 2-{4-[4-(6-Amino-5-benzothiazol-2-ylpyridin-3-yl)-pyrazol-1-yl]-piperidin-1-yl}-acetamide]: the IC50 is 100 to 1000 nM in assay [1] and at most 100 nM in assay [2].

As for `CNC(=O)CN1CCC(n2cc(-c3cnc(N)c(-c4nc5ccccc5s4)c3)cn2)CC1` [Example 163, 2-{4-[4-(6-Amino-5-benzothiazol-2-ylpyridin-3-yl)-pyrazol-1-yl]-piperidin-1-yl}-N-methylacetamide], the IC50 in assay [1] and in assay [2] was 100 to 1000 nM throughout.

In the case of `CN(C)C(=O)CN1CCC(n2cc(-c3cnc(N)c(-c4nc5ccccc5s4)c3)cn2)CC1` [Example 164, 2-{4-[4-(6-Amino-5-benzothiazol-2-ylpyridin-3-yl)-pyrazol-1-yl]-piperidin-1-yl}-N,N-dimethylacetamide], the IC50 in assay [1] and in assay [2] was 100 to 1000 nM each time.
